The results in this text go back to patent US9340521B2, “Method for dual inhibition of SGLT1 and SGLT2 using diphenylmethane derivatives” (GREEN CROSS CORPORATION, priority 2013, dated 2016).

For one test, the target named is Human SGLT2 (hSGLT2) (Homo sapiens (Human), UniProt P31639). The test is described as follows: Inhibitory effects on human SGLT2 activities (14C-AMG uptake, sodium-dependent glucose transport assay). Particulars: hSGLT2-expressing CHO cells, 37° C. for 2 h, single determinations. Format: cell-based. From the text: Test 1: Cloning and Cell Line Construction for Human SGLT2
Human SGLT2 (hSGLT2) gene was amplified by PCR from cDNA-Human Adult Normal Tissue Kidney (Invitrogen). The hSGLT2 sequence was cloned into pcDNA3.1(+) for mammalian expression and stably transfected into chinese hamster ovary (CHO) cells. SGLT2-expressing clones were selected based on resistance to G418 antibiotic (Geneticin) and activity in the ^14C-α-methyl-D-glucopyranoside (^14C-AMG) uptake assay.
Test 2: Inhibitory Effects on Human SGLT2 Activities
(§1) For sodium-dependent glucose transport assay, cells expressing hSGLT2 were seeded into a 96-well culture plate at a density of 5×10^4 cells/well in RPMI medium 1640 containing 10% fetal bovine serum. The cells were used 1 day after plating. They were incubated in pretreatment buffer (10 mM HEPES, 5 mM Tris, 140 mM choline chloride, 2 mM KCl, 1 mM CaCl2, and 1 mM MgCl2, pH 7.4) at 37° C. for 10 min. They were then incubated in uptake buffer (10 mM HEPES, 5 mM Tris, 140 mM NaCl, 2 mM KCl, 1 mM CaCl2, 1 mM MgCl2, and 1 mM ^14C-nonlabeled AMG pH 7.4) containing ^14C-labeled AMG (8 μM) and the inventive compound or dimethyl sulfoxide (DMSO) vehicle at 37° C. for 2 h. Cells were washed twice with washing buffer (pretreatment buffer containing 10 mM AMG at room temperature) and then the radioactivity was measured using a liquid scintillation counter. IC50 was determined by nonlinear regression analysis using GraphPad PRISM [Katsuno, K. et al. J. Pharmacol. Exp. Ther. 2007, 320, 323-330; Han, S. et al. Diabetes, 2008, 57, 1723-1729].

The target in the next test is Human SGLT1 (hSGLT1) (Homo sapiens (Human), UniProt P13866). The test is described as follows: Inhibitory effects on human SGLT1 activities (14C-AMG uptake, sodium-dependent glucose transport assay). Type of test: cell-based. To be noted: 37° C. for 2 h, single determinations. On the procedure: Test 3: Inhibitory Effects on Human SGLT1 Activities
as §1, with “^14C-labeled” for “^14C-labeled AMG”, “inhibitor” for “the inventive compound”, “PRISM.” for “PRISM [Katsuno, K. et al. J. Pharmacol. Exp. Ther. 2007, 320, 323-330; Han, S. et al. Diabetes, 2008, 57, 1723-1729].”

Human SGLT2 (hSGLT2), sequence (P31639 whole entry): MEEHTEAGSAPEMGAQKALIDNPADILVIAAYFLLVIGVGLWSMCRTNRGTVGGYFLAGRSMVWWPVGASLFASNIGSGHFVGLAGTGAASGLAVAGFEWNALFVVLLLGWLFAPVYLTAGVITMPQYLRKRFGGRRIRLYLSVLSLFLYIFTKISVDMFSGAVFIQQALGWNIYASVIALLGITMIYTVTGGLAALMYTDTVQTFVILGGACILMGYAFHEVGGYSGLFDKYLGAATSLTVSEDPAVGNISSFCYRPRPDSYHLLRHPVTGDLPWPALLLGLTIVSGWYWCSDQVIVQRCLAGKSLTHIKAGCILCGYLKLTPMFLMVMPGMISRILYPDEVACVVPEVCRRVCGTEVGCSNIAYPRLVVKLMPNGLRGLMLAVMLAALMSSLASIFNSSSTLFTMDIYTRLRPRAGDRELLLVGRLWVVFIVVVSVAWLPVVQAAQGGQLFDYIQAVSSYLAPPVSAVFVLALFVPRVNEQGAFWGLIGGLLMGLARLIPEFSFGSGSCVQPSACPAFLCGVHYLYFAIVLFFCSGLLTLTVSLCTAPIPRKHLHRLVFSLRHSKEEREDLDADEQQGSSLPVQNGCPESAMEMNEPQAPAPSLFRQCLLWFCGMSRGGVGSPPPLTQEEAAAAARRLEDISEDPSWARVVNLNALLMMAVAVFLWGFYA
Human SGLT1 (hSGLT1), sequence (P13866 whole entry): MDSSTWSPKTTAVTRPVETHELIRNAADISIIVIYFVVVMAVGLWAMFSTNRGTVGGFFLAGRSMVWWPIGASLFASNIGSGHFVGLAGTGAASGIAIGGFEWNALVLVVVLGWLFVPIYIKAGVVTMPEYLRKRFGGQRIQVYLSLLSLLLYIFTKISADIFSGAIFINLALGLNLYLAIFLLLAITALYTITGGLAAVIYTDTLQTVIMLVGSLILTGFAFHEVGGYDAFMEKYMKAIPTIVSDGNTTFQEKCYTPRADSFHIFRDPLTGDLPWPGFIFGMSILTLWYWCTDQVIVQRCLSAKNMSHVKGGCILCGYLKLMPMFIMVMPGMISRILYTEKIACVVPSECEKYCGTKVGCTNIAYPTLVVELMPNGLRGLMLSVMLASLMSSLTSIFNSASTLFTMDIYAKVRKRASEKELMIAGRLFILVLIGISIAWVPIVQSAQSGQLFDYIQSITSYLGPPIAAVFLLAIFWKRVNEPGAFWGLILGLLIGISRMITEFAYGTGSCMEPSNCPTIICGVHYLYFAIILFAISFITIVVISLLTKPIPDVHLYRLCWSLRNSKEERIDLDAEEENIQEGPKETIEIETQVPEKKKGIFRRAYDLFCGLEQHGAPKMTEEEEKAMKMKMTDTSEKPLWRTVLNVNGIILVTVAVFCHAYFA

In the case of `Cc1ccc(Cc2cc3c(c([C@@H]4O[C@H](CO)[C@@H](O)[C@H](O)[C@H]4O)c2)CCC3)cc1` [Compound E041, (2R,3S,4R,5R,6S)-2-(Hydroxymethyl)-6-(6-(4-methylbenzyl)-2,3-dihydro-1H-inden-4-yl)tetrahydro-2H-pyran-3,4,5-triol], the IC50 against Human SGLT2 (hSGLT2) was 8 nM; against Human SGLT1 (hSGLT1), 91 nM.

With `Cc1ccc(Cc2cc([C@@H]3O[C@H](CO)[C@@H](O)[C@H](O)[C@H]3O)c3c(c2Cl)OCCO3)cc1` [Compound E042, (2S,3R,4R,5S,6R)-2-(8-chloro-7-(4-methylbenzyl)-2,3-dihydrobenzo[b][1,4]dioxin-5-yl)-6-(hydroxymethyl)tetrahydro-2H-pyran-3,4,5-triol], the results for the IC50 against Human SGLT2 (hSGLT2) and against Human SGLT1 (hSGLT1) were 1 nM and 9.2 nM, respectively.

For the compound `CCc1ccc(Cc2cc([C@@H]3O[C@H](CO)[C@@H](O)[C@H](O)[C@H]3O)c3c(c2Cl)CCCC3)cc1` [Compound E043, (2S,3R,4R,5S,6R)-2-(4-Chloro-3-(4-ethylbenzyl)-5,6,7,8-tetrahydronaphthalen-1-yl)-6-(hydroxymethyl)tetrahydro-2H-pyran-3,4,5-triol], the half-inhibitory concentration (IC50) against Human SGLT2 (hSGLT2) was determined as 0.49 nM; on Human SGLT1 (hSGLT1) it was 32.6 nM.

As for `CCc1ccc(Cc2cc([C@@H]3O[C@H](CO)[C@@H](O)[C@H](O)[C@H]3O)c3c(c2C)CCCC3)cc1` [Compound E044, (2S,3R,4R,5S,6R)-2-(3-(4-Ethylbenzyl)-4-methyl-5,6,7,8-tetrahydronaphthalen-1-yl)-6-(hydroxymethyl)tetrahydro-2H-pyran-3,4,5-triol], the IC50 against Human SGLT2 (hSGLT2) is 0.59 nM; against Human SGLT1 (hSGLT1), 10.4 nM.

Take `Cc1ccc(Cc2cc([C@@H]3O[C@H](CO)[C@@H](O)[C@H](O)[C@H]3O)c3c(c2Cl)OCCC3)cc1` [Compound E045, (2S,3R,4R,5S,6R)-2-(8-Chloro-7-(4-methylbenzyl)chroman-5-yl)-6-(hydroxymethyl)tetrahydro-2H-pyran-3,4,5-triol]: the IC50 at Human SGLT2 (hSGLT2) is 1.9 nM; against Human SGLT1 (hSGLT1), 36.7 nM.

Turning to `Cc1ccc(Cc2cc([C@@H]3O[C@H](CO)[C@@H](O)[C@H](O)[C@H]3O)c3c(c2Cl)CCO3)cc1` [Compound E046, (2S,3R,4R,5S,6R)-2-(4-Chloro-5-(4-methylbenzyl)-2,3-dihydrobenzofuran-7-yl)-6-(hydroxymethyl)tetrahydro-2H-pyran-3,4,5-triol], the half-inhibitory concentration (IC50) against Human SGLT2 (hSGLT2) came out at 1.4 nM; against Human SGLT1 (hSGLT1), 29.9 nM.

For `CCOc1ccc(Cc2cc([C@@H]3O[C@H](CO)[C@@H](O)[C@H](O)[C@H]3O)c3c(c2C)CCCC3)cc1` [Compound E047, (2S,3R,4R,5S,6R)-2-(3-(4-Ethoxybenzyl)-4-methyl-5,6,7,8-tetrahydronaphthalen-1-yl)-6-(hydroxymethyl)tetrahydro-2H-pyran-3,4,5-triol], the IC50 came to 1.3 nM on Human SGLT2 (hSGLT2) and 27.1 nM against Human SGLT1 (hSGLT1).

Take `COc1ccc(Cc2cc([C@@H]3O[C@H](SC)[C@@H](O)[C@H](O)[C@H]3O)c3c(c2Cl)CCC3)cc1` [Compound E048, (2S,3R,4R,5S,6R)-2-(7-Chloro-6-(4-methoxybenzyl)-2,3-dihydro-1H-inden-4-yl)-6-(methylthio)tetrahydro-2H-pyran-3,4,5-triol]: the figures for the IC50 against Human SGLT2 (hSGLT2) and against Human SGLT1 (hSGLT1) were 0.5 nM and 33.7 nM, respectively.

With `CSc1ccc(Cc2cc([C@@H]3O[C@H](CO)[C@@H](O)[C@H](O)[C@H]3O)c3c(c2Cl)OCO3)cc1` [Compound E049, (2S,3R,4R,5S,6R)-2-(7-Chloro-6-(4-(methylthio)benzyl)benzo[d][1,3]dioxol-4-yl)-6-(hydroxymethyl)tetrahydro-2H-pyran-3,4,5-triol], the IC50 turned out to be 0.8 nM against Human SGLT2 (hSGLT2) and 50.3 nM against Human SGLT1 (hSGLT1).

Turning to `CSc1ccc(Cc2cc([C@@H]3O[C@H](CO)[C@@H](O)[C@H](O)[C@H]3O)c3c(c2Cl)OCCO3)cc1` [Compound E050, (2S,3R,4R,5S,6R)-2-(8-Chloro-7-(4-(methylthio)benzyl)-2,3-dihydrobenzo[b][1,4]dioxin-5-yl)-6-(hydroxymethyl)tetrahydro-2H-pyran-3,4,5-triol], the IC50 at Human SGLT2 (hSGLT2) stood at 0.85 nM; on Human SGLT1 (hSGLT1), 23.2 nM.

Consider `CCOc1ccc(Cc2cc([C@@H]3O[C@H](SC)[C@@H](O)[C@H](O)[C@H]3O)c3c(c2Cl)OCO3)cc1` [Compound E051, (2S,3R,4R,5S,6R)-2-(7-Chloro-6-(4-ethoxybenzyl)benzo[d][1,3]dioxol-4-yl)-6-(methylthio)tetrahydro-2H-pyran-3,4,5-triol], for which the IC50 was determined as 0.49 nM at Human SGLT2 (hSGLT2) and 62.4 nM at Human SGLT1 (hSGLT1).

Turning to `Cc1ccc(Cc2cc([C@@H]3O[C@H](CO)[C@@H](O)[C@H](O)[C@H]3O)c3c(c2Cl)CCCO3)cc1` [Compound E052, (2S,3R,4R,5S,6R)-2-(5-Chloro-6-(4-methylbenzyl)chroman-8-yl)-6-(hydroxymethyl)tetrahydro-2H-pyran-3,4,5-triol], the IC50 is 1.1 nM on Human SGLT2 (hSGLT2) and 9.2 nM on Human SGLT1 (hSGLT1).

Regarding `OC[C@H]1O[C@@H](c2cc(Cc3cc4ccccc4s3)c(Cl)c3c2OCO3)[C@H](O)[C@@H](O)[C@@H]1O` [Compound E053, (2S,3R,4R,5S,6R)-2-(6-(Benzo[b]thiophen-2-ylmethyl)-7-chlorobenzo[d][1,3]dioxol-4-yl)-6-(hydroxymethyl)tetrahydro-2H-pyran-3,4,5-triol], the IC50 against Human SGLT2 (hSGLT2) turned out to be 1.5 nM; on Human SGLT1 (hSGLT1), 41 nM.

On to `OC[C@H]1O[C@@H](c2cc(Cc3ccc(-c4ccc(F)cc4)s3)c(Cl)c3c2OCCO3)[C@H](O)[C@@H](O)[C@@H]1O` [Compound E054, (2S,3R,4R,5S,6R)-2-(8-Chloro-7-((5-(4-fluorophenyl)thiophen-2-yl)methyl)-2,3-dihydrobenzo[b][1,4]dioxin-5-yl)-6-(hydroxymethyl)tetrahydro-2H-pyran-3,4,5-triol], for which the concentration for half-maximal inhibition (IC50) came out at 1.1 nM against Human SGLT2 (hSGLT2) and 125 nM on Human SGLT1 (hSGLT1).

For the compound `OC[C@H]1O[C@@H](c2cc(Cc3cc4ccccc4s3)c(Cl)c3c2CCO3)[C@H](O)[C@@H](O)[C@@H]1O` [Compound E055, (2S,3R,4R,5S,6R)-2-(6-(Benzo[b]thiophen-2-ylmethyl)-7-chloro-2,3-dihydrobenzofuran-4-yl)-6-(hydroxymethyl)tetrahydro-2H-pyran-3,4,5-triol], the IC50 at Human SGLT2 (hSGLT2) stood at 1.4 nM; at Human SGLT1 (hSGLT1), 148 nM.

For `OC[C@H]1O[C@@H](c2cc(Cc3cc4ccccc4s3)c(Cl)c3c2OCCO3)[C@H](O)[C@@H](O)[C@@H]1O` [Compound E056, (2S,3R,4R,5S,6R)-2-(7-(Benzo[b]thiophen-2-ylmethyl)-8-chloro-2,3-dihydrobenzo[b][1,4]dioxin-5-yl)-6-(hydroxymethyl)tetrahydro-2H-pyran-3,4,5-triol], the IC50 at Human SGLT2 (hSGLT2) came to 2.2 nM; on Human SGLT1 (hSGLT1) it was 14 nM.

Consider `CCc1ccc(Cc2cc([C@@H]3O[C@H](CO)[C@@H](O)[C@H](O)[C@H]3O)c3c(c2Br)CCCC3)cc1` [Compound E057, (2S,3R,4R,5S,6R)-2-(4-Bromo-3-(4-ethylbenzyl)-5,6,7,8-tetrahydronaphthalen-1-yl)-6-(hydroxymethyl)tetrahydro-2H-pyran-3,4,5-triol], for which the 50% inhibitory concentration (IC50) on Human SGLT2 (hSGLT2) is 0.86 nM; at Human SGLT1 (hSGLT1), 11 nM.

Turning to `CCOc1ccc(Cc2cc([C@@H]3O[C@H](CO)[C@@H](O)[C@H](O)[C@H]3O)c3c(c2Br)CCCC3)cc1` [Compound E058, (2S,3R,4R,5S,6R)-2-(4-Bromo-3-(4-ethoxybenzyl)-5,6,7,8-tetrahydronaphthalen-1-yl)-6-(hydroxymethyl)tetrahydro-2H-pyran-3,4,5-triol], the IC50 was found to be 0.87 nM at Human SGLT2 (hSGLT2) and 17.1 nM on Human SGLT1 (hSGLT1).

Regarding `CCOc1ccc(Cc2cc([C@@H]3O[C@H](CO)[C@@H](O)[C@H](O)[C@H]3O)c3c(c2Cl)SCC3)cc1` [Compound E059, (2S,3R,4R,5S,6R)-2-(7-Chloro-6-(4-ethoxybenzyl)-2,3-dihydrobenzo[b]thiophen-4-yl)-6-(hydroxymethyl)tetrahydro-2H-pyran-3,4,5-triol], the concentration for half-maximal inhibition (IC50) worked out at 1.1 nM at Human SGLT2 (hSGLT2) and 95.1 nM against Human SGLT1 (hSGLT1).

Usually IC50 stands for the midpoint of a concentration-inhibition curve. Read a high IC50 as lower potency.
